[DAP] = 2,6-diaminopurine base (2-amino-2'-deoxyadenosine) replacing adenine
Experiments:
[1] = system: human immunodeficiency virus (HIV); settings: Balzarini et al. 1987; cited from earlier work
[2] = system: common Beta chain of human GM-CSF, IL-3 and IL-5 receptor; assay: Semi-quantitative RT-PCR of common beta chain mRNA in U937 cells treated with antisense; format: cell-based; settings: compared with AS107 containing adenosine, G3PDH housekeeping gene
Experimental: Experiments were performed to assess whether antisense oligonucleotides described in international application WO 99/66037 (incorporated herein) directed against the common beta sub-unit of the IL-3, IL-5 and GM-CSF receptor, could inhibit the expression and the function of this receptor when modified by replacing adenosine by either 2-amino-2′-deoxyadenosine or inosine. TF-1 and U937 cells express high levels of GM-CSF receptors. In addition, TF-1 cells are dependent on GM-CSF for survival. These cells were cultured in RPMI 1640 supplemented with 10% heat-inactivated fetal calf serum, penicillin, streptomycin and 1-glutamine at 37° C. in 5% CO2 (the TF-1 cells were supplemented with GM-CSF). […] The sequence for 107A-DAP was: 5′-GGGTCTGCDapGCGGGDapTGGT-3′ (SEQ ID NO:21); the sequence for 107A-inosine (107A-I) was: 5′-GGGTCTGCIGCGGGIT GGT-3′ (SEQ ID NO:22). The cells were retrieved and washed 3 times. RNA was then retrieved and the presence of the beta chain of the receptor was assessed by semi-quantitative RT-PCR.

[3] = system: common Beta chain of human GM-CSF, IL-3 and IL-5 receptor; assay: Semi-quantitative RT-PCR of common beta chain mRNA in TF-1 cells treated with antisense; format: cell-based; settings: TF1 cells; compared with AS107 containing adenosine
Experimental: Experiments were performed to assess whether antisense oligonucleotides described in international application WO 99/66037 (incorporated herein) directed against the common beta sub-unit of the IL-3, IL-5 and GM-CSF receptor, could inhibit the expression and the function of this receptor when modified by replacing adenosine by either 2-amino-2′-deoxyadenosine or inosine. TF-1 and U937 cells express high levels of GM-CSF receptors. In addition, TF-1 cells are dependent on GM-CSF for survival. These cells were cultured in RPMI 1640 supplemented with 10% heat-inactivated fetal calf serum, penicillin, streptomycin and 1-glutamine at 37° C. in 5% CO2 (the TF-1 cells were supplemented with GM-CSF). For 12 hours they were either cultured in medium alone or medium with sense (107S: 5′-ACCAT CCCGCTGCAGACCC-3′ (SEQ ID NO:19) or antisense (107A: 5′-GGGTCTGCAGCGGGATGGT-3′; SEQ ID NO:20) oligonucleotides to the common beta sub-unit of the IL-3, IL-5 and GM-CSF receptor. The sequence for 107A-DAP was: 5′-GGGTCTGCDapGCGGGDapTGGT-3′ (SEQ ID NO:21); the sequence for 107A-inosine (107A-I) was: 5′-GGGTCTGCIGCGGGIT GGT-3′ (SEQ ID NO:22). The cells were retrieved and washed 3 times. RNA was then retrieved and the presence of the beta chain of the receptor was assessed by semi-quantitative RT-PCR.

[4] = system: lungs/airways; settings: in vivo; cited from earlier work

Nc1nc(N)c2ncn([C@H]3CC[C@@H](CO)O3)c2n1 [2-amino-2′,3′-dideoxyadenosine]
inhibition of HIV replication in vitro [1]: capable of selectively inhibiting

5′-GGGTCTGCDapGCGGGDapTGGT-3′ (DNA GGGTCTGCNGCGGGNTGGT; DNA, [DAP] at 9, 15, backbone and methylation of C not given here) [AS107-DAP]
blocking the mRNA for the common Beta chain, semi-quantitative PCR [2]: at least equally effective | blocking mRNA expression of the common Beta chain, semi-quantitative PCR [3]: at least equally effective

OC[C@H]1O[C@@H](n2cnc3c(O)ncnc32)[C@H](O)[C@@H]1O [inosine]
bronchoconstriction of the lungs/airways compared to adenosine [4]: does not cause bronchoconstriction
